Test results as given in US6770597B2, “Benzohydrazide derivatives as herbicides and desiccant compositions containing them” (Ishihara Sangyo Kaisha, Ltd., priority 2002, dated 2004).

Key:
Format in all cases: in vivo
[1] = tested on: barnyardgrass (Echinochloa crus-galli, ECHCG); assay: Greenhouse herbicide screen, post-emerge application, phytotoxicity rating; details: POST emergent, 14 days after application, scale 0-100
How it was run: (§1)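 Acetone-dissolved compounds are sprayed over pots at 15 to 1000 g ai/ha with a flat fan nozzle 40–45 cm above the target. Pre-emerge pots are top-watered immediately to incorporate; post-emerge pots are bottom-watered. Plants are rated 0–100 after 14 days.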

[2] = tested on: cocklebur (Xanthium strumarium, XANST); assay: as above; details: POST emergent, 14 days after application, scale 0-100
How it was run: as §1

[3] = tested on: common ragweed (Ambrosia artemisiifolia L., AMBEL); assay: as above; details: POST emergent, 14 days after application, scale 0-100
How it was run: as §1

[4] = tested on: green foxtail (Setaria viridis, SETVI); assay: as above; details: POST emergent, 14 days after application, scale 0-100
How it was run: as §1

[5] = tested on: ivyleaf morningglory (Ipomoea hederacea, IPOHE); assay: as above; details: POST emergent, 14 days after application, scale 0-100
How it was run: as §1

[6] = tested on: johnsongrass (Sorghum halepense, SORHA); assay: as above; details: POST emergent, 14 days after application, scale 0-100
How it was run: as §1

[7] = tested on: lambsquarters (Chenopodium album, CHEAL); assay: as above; details: POST emergent, 14 days after application, scale 0-100
How it was run: as §1

[8] = tested on: large crabgrass (Digitaria sanguinalis, DIGSA); assay: as above; details: POST emergent, 14 days after application, scale 0-100
How it was run: as §1

[9] = tested on: redroot pigweed (Amaranthus retrofiexus, AMARE); assay: as above; details: POST emergent, 14 days after application
How it was run: as §1

[10] = tested on: sicklepod (Cassia obtusifolia, CASOB); assay: as above; details: POST emergent, 14 days after application, scale 0-100
How it was run: as §1

[11] = tested on: velvetleaf (Abutilon theophrasti, ABUTH); assay: as above; details: POST emergent, 14 days after application, scale 0-100
How it was run: as §1

[12] = tested on: field corn (Zea mays L., var. Dekalb 535, CORN); assay: Greenhouse herbicide screen, post-emerge application, crop damage rating; details: POST emergent, 14 days after application, scale 0-100
How it was run: as §1

[13] = tested on: upland rice (Oryza sp., var.Cocodrie, RICE); assay: as above; details: POST emergent, 14 days after application, scale 0-100
How it was run: as §1

[14] = tested on: barnyardgrass (Echinochloa crus-galli, ECHCG); assay: Greenhouse herbicide screen, pre-emerge application, phytotoxicity rating; details: PRE emergent, 14 days after application, rating scale 0-100
How it was run: as §1

[15] = tested on: cocklebur (Xanthium strumarium, XANST); assay: as above; details: PRE emergent, 14 days after application, rating scale 0-100
How it was run: as §1

[16] = tested on: common ragweed (Ambrosia artemisiifolia L., AMBEL); assay: as above; details: PRE emergent, 14 days after application, rating scale 0-100
How it was run: as §1

[17] = tested on: green foxtail (Setaria viridis, SETVI); assay: as above; details: PRE emergent, 14 days after application, rating scale 0-100
How it was run: as §1

[18] = tested on: ivyleaf morningglory (Ipomoea hederacea, IPOHE); assay: as above; details: PRE emergent, 14 days after application, rating scale 0-100
How it was run: as §1

[19] = tested on: johnsongrass (Sorghum halepense, SORHA); assay: as above; details: PRE emergent, 14 days after application, rating scale 0-100
How it was run: as §1

[20] = tested on: lambsquarters (Chenopodium album, CHEAL); assay: as above; details: PRE emergent, 14 days after application, rating scale 0-100
How it was run: as §1

[21] = tested on: large crabgrass (Digitaria sanguinalis, DIGSA); assay: as above; details: PRE emergent, 14 days after application, rating scale 0-100
How it was run: as §1

[22] = tested on: redroot pigweed (Amaranthus retrofiexus, AMARE); assay: as above; details: PRE emergent, 14 days after application, rating scale 0-100
How it was run: as §1

[23] = tested on: sicklepod (Cassia obtusifolia, CASOB); assay: as above; details: PRE emergent, 14 days after application, rating scale 0-100
How it was run: as §1

[24] = tested on: velvetleaf (Abutilon theophrasti, ABUTH); assay: as above; details: PRE emergent, 14 days after application, rating scale 0-100
How it was run: as §1

[25] = tested on: field corn (Zea mays L., var. Dekalb 535, CORN); assay: Greenhouse herbicide screen, pre-emerge application, crop damage rating; details: PRE emergent, 14 days after application, rating scale 0-100
How it was run: as §1

[26] = tested on: upland rice (Oryza sp., var.Cocodrie, RICE); assay: as above; details: PRE emergent, 14 days after application, rating scale 0-100
How it was run: as §1

[27] = 63 g ai/ha, scale 0-100 (0 no damage, 100 complete death)

SMILES: CC(=NN=C(OC(=O)C(Cl)Cl)c1cc(-n2c(=O)cc(C(F)(F)F)n(C)c2=O)c(F)cc1Cl)C(C)(C)C [Compound 5-4]
- phytotoxicity rating ECHCO ([1]; 63 g ai/ha): 90
- phytotoxicity rating XANST ([2]; 63 g ai/ha): 65
- phytotoxicity rating AMBEL ([3]; 63 g ai/ha): 95
- phytotoxicity rating SETVI ([4]; 63 g ai/ha): 55
- phytotoxicity rating IPOHE ([5]; 63 g ai/ha): 100
- phytotoxicity rating SORHA ([6]; 63 g ai/ha): 30
- phytotoxicity rating CHEAL ([7]; 63 g ai/ha): 70
- phytotoxicity rating DIGSA ([8]; 63 g ai/ha): 75
- phytotoxicity rating AMARE [9, 27]: 95
- phytotoxicity rating CASOB ([10]; 63 g ai/ha): 50
- phytotoxicity rating ABUTH ([11]; 63 g ai/ha): 99
- crop damage rating CORN ([12]; 63 g ai/ha): 60
- crop damage rating RICE ([13]; 63 g ai/ha): 10
- phytotoxicity rating ECHCG ([14]; 63 g ai/ha): 40
- phytotoxicity rating XANST ([15]; 63 g ai/ha): 40
- phytotoxicity rating AMBEL ([16]; 63 g ai/ha): 70
- phytotoxicity rating SETVI ([17]; 63 g ai/ha): 50
- phytotoxicity rating IPOHE ([18]; 63 g ai/ha): 100
- phytotoxicity rating SORHA ([19]; 63 g ai/ha): 85
- phytotoxicity rating CHEAL ([20]; 63 g ai/ha): 100
- phytotoxicity rating DIGSA ([21]; 63 g ai/ha): 55
- phytotoxicity rating AMARE ([22]; 63 g ai/ha): 100
- phytotoxicity rating CASOB ([23]; 63 g ai/ha): 30
- phytotoxicity rating ABUTH ([24]; 63 g ai/ha): 100
- crop damage rating CORN ([25]; 63 g ai/ha): 10
- crop damage rating RICE ([26]; 63 g ai/ha): 55

SMILES: CC1CCCC(C)N1NC(=O)c1cc(-n2c(=O)cc(C(F)(F)F)n(C)c2=S)c(F)cc1Cl (stereo not drawn) [Compound 1-15]
- phytotoxicity rating ECHCO ([1]; 63 g ai/ha): 50
- phytotoxicity rating ECHCO ([1]; 250 g ai/ha): 80
- phytotoxicity rating XANST ([2]; 63 g ai/ha): 100
- phytotoxicity rating XANST ([2]; 250 g ai/ha): 100
- phytotoxicity rating AMBEL ([3]; 63 g ai/ha): 80
- phytotoxicity rating AMBEL ([3]; 250 g ai/ha): 95
- phytotoxicity rating SETVI ([4]; 63 g ai/ha): 20
- phytotoxicity rating SETVI ([4]; 250 g ai/ha): 55
- phytotoxicity rating IPOHE ([5]; 63 g ai/ha): 75
- phytotoxicity rating IPOHE ([5]; 250 g ai/ha): 100
- phytotoxicity rating SORHA ([6]; 63 g ai/ha): 0
- phytotoxicity rating SORHA ([6]; 250 g ai/ha): 30
- phytotoxicity rating CHEAL ([7]; 63 g ai/ha): 98
- phytotoxicity rating CHEAL ([7]; 250 g ai/ha): 100
- phytotoxicity rating DIGSA ([8]; 63 g ai/ha): 10
- phytotoxicity rating DIGSA ([8]; 250 g ai/ha): 10
- phytotoxicity rating AMARE [9, 27]: 90
- phytotoxicity rating AMARE ([9]; 250 g ai/ha, scale 0-100): 100
- phytotoxicity rating CASOB ([10]; 63 g ai/ha): 70
- phytotoxicity rating CASOB ([10]; 250 g ai/ha): 75
- phytotoxicity rating ABUTH ([11]; 63 g ai/ha): 100
- phytotoxicity rating ABUTH ([11]; 250 g ai/ha): 100
- crop damage rating CORN ([12]; 63 g ai/ha): 40
- crop damage rating CORN ([12]; 250 g ai/ha): 60
- crop damage rating RICE ([13]; 63 g ai/ha): 0
- crop damage rating RICE ([13]; 250 g ai/ha): 30
- phytotoxicity rating ECHCG ([14]; 63 g ai/ha): 75
- phytotoxicity rating ECHCG ([14]; 250 g ai/ha): 100
- phytotoxicity rating XANST ([15]; 63 g ai/ha): 75
- phytotoxicity rating XANST ([15]; 250 g ai/ha): 100
- phytotoxicity rating AMBEL ([16]; 63 g ai/ha): 100
- phytotoxicity rating AMBEL ([16]; 250 g ai/ha): 100
- phytotoxicity rating SETVI ([17]; 63 g ai/ha): 100
- phytotoxicity rating SETVI ([17]; 250 g ai/ha): 100
- phytotoxicity rating IPOHE ([18]; 63 g ai/ha): 100
- phytotoxicity rating IPOHE ([18]; 250 g ai/ha): 100
- phytotoxicity rating SORHA ([19]; 63 g ai/ha): 100
- phytotoxicity rating SORHA ([19]; 250 g ai/ha): 100
- phytotoxicity rating CHEAL ([20]; 63 g ai/ha): 100
- phytotoxicity rating CHEAL ([20]; 250 g ai/ha): 100
- phytotoxicity rating DIGSA ([21]; 63 g ai/ha): 100
- phytotoxicity rating DIGSA ([21]; 250 g ai/ha): 100
- phytotoxicity rating AMARE ([22]; 63 g ai/ha): 100
- phytotoxicity rating AMARE ([22]; 250 g ai/ha): 100
- phytotoxicity rating CASOB ([23]; 63 g ai/ha): 45
- phytotoxicity rating CASOB ([23]; 250 g ai/ha): 90
- phytotoxicity rating ABUTH ([24]; 63 g ai/ha): 100
- phytotoxicity rating ABUTH ([24]; 250 g ai/ha): 100
- crop damage rating CORN ([25]; 63 g ai/ha): 25
- crop damage rating CORN ([25]; 250 g ai/ha): 100
- crop damage rating RICE ([26]; 63 g ai/ha): 55
- crop damage rating RICE ([26]; 250 g ai/ha): 70
